Like-named read-outs stand apart in the source and are kept apart here.
How the values were obtained:
[1] = cited from earlier work
BCL-2 = test: Western blotting of BCL-2α/β proteins and cleaved caspase-3 in healthy donor PBMCs treated ex vivo with ABT-199; assay type: cell-based, human; details: 1 µM
Protocol: PBMCs from the trial patients or healthy donors were isolated from whole blood using Lymphoprep™ ([…] Technologies, Cat. #07801) following the manufacturer’s protocol. Whole blood was diluted 1:1 with room temperature phosphate-buffered saline (PBS) containing 2% fetal bovine serum (FBS) and carefully layered over an equal volume of Lymphoprep™ in a 50 mL conical tube. Samples were centrifuged at 800 × g for 20–30 min at room temperature with the brake off. The PBMC layer formed at the interface between the plasma and Lymphoprep™ was gently collected and transferred to a new tube. Cells were washed once with PBS containing 2% FBS by centrifugation at 300 × g for 10 min, and the final pellet was resuspended in DMEM media for downstream culture.
ABT-199 (S8048, Selleck Chemicals) was dissolved in DMSO. Healthy donor PBMCs were seeded at a density of 2 × 10⁶ cells per 60 mm dish and treated with 1 μM of ABT-199 for various time intervals (i.e., 2, 4, 8, and 24 h). At the end of each time point, PBMCs were harvested for protein and RNA extraction (below). All treatments were performed in 3–6 biological replicates and control samples were treated with vehicle (DMSO) only.
PBMC samples from above were harvested using 0.1% trypsin–EDTA solution (Gibco) and centrifuged (1,000 rcf, 4 min, 4 °C), washed with DPBS (Gibco), centrifuged again (1,000 rcf, 4 min, 4 °C), and the pellet was lysed in denaturing buffer containing Halt protease inhibitor cocktail (Thermo Fisher Scientific; Cat# SD-001/SN-002) for 15 min on ice. After centrifugation (15,000 rcf, 15 min, 4 °C), an aliquot of the supernatant was taken to determine the protein concentration using a BCA Protein Assay Kit (Thermo Fisher Scientific). Protein samples were mixed in NuPAGE LDS buffer and 1 × reducing agent (Invitrogen) and denatured at 95 °C for 5 min. Proteins separated by sodium dodecyl sulfate–polyacrylamide gel electrophoresis (SDS-PAGE) were transferred to a nitrocellulose membrane at 110 V for 110 min in a wet tank transfer system (Surelock system, Invitrogen). […]

[2] = Venetoclax plasma PK in combination with enzalutamide (LC–MS/MS, non-compartmental); assay type: in vivo, human; details: for half-life: read-out: D1 t½ (converted); for AUC(0-inf): read-out: D1 AUC0-inf; for Tmax: read-out: D1 Tmax
Protocol: A volume of 50 μL of the standard, QC, or sample plasma was pipetted into a microfuge tube and 10 μL of internal standard (IS; 500 ng/mL ^2H7-venetoclax) was added to each. Next, 200 μL of acetonitrile was added followed by vortexing for 30 s. Samples were centrifuged at 17,200 × g at room temperature for 10 min. Supernatants were transferred to autosampler vials, followed by injection of 5 μL into the LC–MS/MS system. The LC system consisted of an Exion autosampler with binary pump (Sciex, Framingham, MA, USA), Synergi Polar-RP C18 (4 µm, 2.1 × 50 mm) column kept at 30 °C. The autosampler temperature was also kept at 10 °C. Mobile phase solvent A consisted of 0.1% formic acid in water and mobile phase solvent B consisted of 0.1% formic acid in acetonitrile, mixed at 60% B. A. flow rate of 0.4 mL/min between 0–3 min and 1 mL/min from 3–5 min. Retention time of venetoclax was 1.7 min. MS detection was carried out using an ABI SCIEX (Concord, ON, Canada) 4500 tandem mass spectrometer with electrospray ionization in positive multiple reaction monitoring (MRM) mode, monitoring m/z transitions: 868.40 > 836.3 for venetoclax and 875.4 > 643.3 for venetoclax IS. QC based accuracies (N = 6, each of 3 days) were 100.9–106.2%. The intra- and inter-assay precisions were < 10.6% and < 2.4%.

AR−/lo LAPC9-CRPC = test system: AR−/lo LAPC9-CRPC; design: method as in PMID 30190514; details: single agent; cited from earlier work
[3] = Total (N = 10), venetoclax 400–800 mg with enzalutamide 160 mg/d, geometric mean (geometric SD)
[4] = Total (N = 10), venetoclax 400–800 mg with enzalutamide 160 mg/d, geometric mean (geometric SD), listed as Venetoclax
[5] = male, human, plasma, oral, 400 mg
[6] = male, human, plasma, oral, 600 mg
[7] = male, human, plasma, oral, 800 mg
[8] = venetoclax 400 mg (N = 3) with enzalutamide 160 mg/d, plasma, geometric mean (geometric SD)
[9] = venetoclax 600 mg (N = 3) with enzalutamide 160 mg/d, plasma, geometric mean (geometric SD)
[10] = venetoclax 800 mg (N = 4) with enzalutamide 160 mg/d, plasma, geometric mean (geometric SD)

D1 Cl/F [2, 3]: approximately 42 L/h
D1 Cmax/Dose [2, 3]: 1.54 (1.54) µg/L/mg
D1 Tmax [2, 3]: 6.0 (1.3) h
D15 Cmin [2, 3]: 188 (2.17) µg/L
D1 Cl/F [2, 4]: 42.1 (1.76) L/h
D1 t½ [2, 4]: 8.9 (1.6) h
Ratio D29/D1 (day 29 AUC0–24 over day 1 AUC0-inf) ([2]; Total, venetoclax 400–800 mg with enzalutamide 160 mg/d, geometric mean (geometric SD)): 0.77 (2.90)
Variability of the ratio of day 29 AUC0–24 over day 1 AUC0-inf ([2]; corresponding to geometric SD 2.90): 190 %CV
AUC(0-t) ([2]; human, plasma, oral, 800 mg, venetoclax 800 mg with enzalutamide 160 mg/d, plasma, N = 1 on D29, read-out: D29 AUC0-24): 8870 ng·h/mL
Cmax ([2]; human, plasma, oral, 800 mg, venetoclax 800 mg with enzalutamide 160 mg/d, plasma, N = 1 on D29, read-out: D29 Cmax): 1000 ng/mL
Increase in venetoclax apparent clearance ([2]; in combination with enzalutamide, versus previously reported values): 2–threefold
clearance ([2]; male, human, plasma, oral): ~700 mL/min
AUC(0-t) ([2]; male, human, plasma, oral, 400 mg, venetoclax 400 mg (N = 3) with enzalutamide 160 mg/d, plasma, geometric mean (geometric SD), read-out: D1 AUC0-last): 8020 ng·h/mL
Cmax ([2]; male, human, plasma, oral, 400 mg, venetoclax 400 mg (N = 3) with enzalutamide 160 mg/d, plasma, geometric mean (geometric SD), read-out: D1 Cmax): 658 ng/mL
half-life ([2]; male, human, plasma, oral, 400 mg, venetoclax 400 mg (N = 3) with enzalutamide 160 mg/d, plasma, geometric mean (geometric SD)): 11 h
AUC(0-t) ([2]; male, human, plasma, oral, 400 mg, venetoclax 400 mg (N = 3) with enzalutamide 160 mg/d, plasma, geometric mean (geometric SD), read-out: D29 AUC0-24): 10500 ng·h/mL
Cmax ([2]; male, human, plasma, oral, 400 mg, venetoclax 400 mg (N = 3) with enzalutamide 160 mg/d, plasma, geometric mean (geometric SD), read-out: D29 Cmax): 968 ng/mL
AUC(0-inf) [2, 5]: 11100 ng·h/mL
Tmax [2, 5]: 5.2 h
AUC(0-t) ([2]; male, human, plasma, oral, 600 mg, venetoclax 600 mg (N = 3) with enzalutamide 160 mg/d, plasma, geometric mean (geometric SD), read-out: D1 AUC0-last): 12200 ng·h/mL
Cmax ([2]; male, human, plasma, oral, 600 mg, venetoclax 600 mg (N = 3) with enzalutamide 160 mg/d, plasma, geometric mean (geometric SD), read-out: D1 Cmax): 1170 ng/mL
half-life ([2]; male, human, plasma, oral, 600 mg, venetoclax 600 mg (N = 3) with enzalutamide 160 mg/d, plasma, geometric mean (geometric SD)): 6.6 h
AUC(0-t) ([2]; male, human, plasma, oral, 600 mg, venetoclax 600 mg (N = 3) with enzalutamide 160 mg/d, plasma, geometric mean (geometric SD), read-out: D29 AUC0-24): 9110 ng·h/mL
Cmax ([2]; male, human, plasma, oral, 600 mg, venetoclax 600 mg (N = 3) with enzalutamide 160 mg/d, plasma, geometric mean (geometric SD), read-out: D29 Cmax): 554 ng/mL
AUC(0-inf) [2, 6]: 14600 ng·h/mL
Tmax [2, 6]: 5.6 h
AUC(0-t) ([2]; male, human, plasma, oral, 800 mg, venetoclax 800 mg (N = 4) with enzalutamide 160 mg/d, plasma, geometric mean (geometric SD), read-out: D1 AUC0-last): 8760 ng·h/mL
Cmax ([2]; male, human, plasma, oral, 800 mg, venetoclax 800 mg (N = 4) with enzalutamide 160 mg/d, plasma, geometric mean (geometric SD), read-out: D1 Cmax): 979 ng/mL
half-life ([2]; male, human, plasma, oral, 800 mg, venetoclax 800 mg (N = 4) with enzalutamide 160 mg/d, plasma, geometric mean (geometric SD)): 9.4 h
AUC(0-inf) [2, 7]: 16600 ng·h/mL
Tmax [2, 7]: 6.9 h
Cmax ([2]; male, human, plasma, oral, Total (N = 10), venetoclax 400–800 mg with enzalutamide 160 mg/d, geometric mean (geometric SD), read-out: D1 Cmax): 917 ng/mL
half-life ([2]; male, human, plasma, oral, Total (N = 10), venetoclax 400–800 mg with enzalutamide 160 mg/d, geometric mean (geometric SD)): ~9 h
Cmax ([2]; male, human, plasma, oral, Total, venetoclax 400–800 mg with enzalutamide 160 mg/d, N = 3, 3, and 1 on D29, geometric mean (geometric SD), read-out: D29 Cmax): 765 ng/mL
Ratio D29/D1 (day 29 AUC0–24 over day 1 AUC0-inf) ([2]; venetoclax 400 mg (N = 3) with enzalutamide 160 mg/d, geometric mean (geometric SD)): 0.95 (1.99)
D1 Cl/F [2, 8]: 36.2 (1.27) L/h
D1 Cmax/Dose [2, 8]: 1.64 (1.29) µg/L/mg
D15 Cmin [2, 8]: 180 (1.72) µg/L
Ratio D29/D1 (day 29 AUC0–24 over day 1 AUC0-inf) ([2]; venetoclax 600 mg (N = 3) with enzalutamide 160 mg/d, geometric mean (geometric SD)): 0.62 (5.32)
D1 Cl/F [2, 9]: 41.2 (1.65) L/h
D1 Cmax/Dose [2, 9]: 1.95 (1.79) µg/L/mg
D15 Cmin [2, 9]: 214 (2.30) µg/L
D1 Cl/F [2, 10]: 48.1 (2.31) L/h
D1 Cmax/Dose [2, 10]: 1.22 (1.50) µg/L/mg
D15 Cmin [2, 10]: 177 (2.89) µg/L
Ratio D29/D1 (day 29 AUC0–24 over day 1 AUC0-inf) ([2]; venetoclax 800 mg with enzalutamide 160 mg/d, N = 1 on D29): 0.79
Interpatient variability in Cmin ([2]; venetoclax, approximated from geometric SD (2.17–1)*100): ~117 %CV
Intrapatient variability in Cmin ([2]; venetoclax, from day 8 through 57, across doses): 51 %CV
Compound: CC1(C)CCC(CN2CCN(c3ccc(C(=O)NS(=O)(=O)c4ccc(NCC5CCOCC5)c([N+](=O)[O-])c4)c(Oc4cnc5[nH]ccc5c4)c3)CC2)=C(c2ccc(Cl)cc2)C1 [venetoclax]
Absolute bioavailability [1]: ~ 5%
Less than expected exposure when doubling dose ([1]; from 400 to 800 mg, population PK report): 12%
Cmax ([1]; previous values, 800 mg dose): 3740 ng/mL
Cmin ([1]; previous values, 800 mg dose): 1430 ng/mL
Venetoclax half-life ([1]; previously reported in AML patients): 14 to 26 h
Venetoclax clearance ([1]; previously reported): 413 L/day
Apoptosis: active (cleaved) caspase-3 (BCL-2; PBMCs from all 3 healthy donors): increased active (cleaved) caspase-3
BCL-2β protein levels and BCL-2β/BCL-2α ratios (BCL-2; all 3 healthy donor PBMCs, from 2 h up to 8 h): upregulated BCL-2β protein levels and increased the BCL-2β/BCL-2α ratios
BCL-2α/BCL-2β proteins (BCL-2; healthy donor PBMCs, ≥ 24 h post treatment): lost and undetectable
Growth of AR−/lo LAPC9-CRPC (AR−/lo LAPC9-CRPC): greatly inhibited
